Measured values taken from PubChem BioAssay AID2060908 (Molecular Pharmacology Branch, DTP, NCI, 2025).

Tested on: 186277-243-T-J2-PDC complex spheroids, viability
Test: Anticancer human tumor 186277-243-T-J2-PDC patient-derived colon adenocarcinoma cell line growth inhibition [RAS]
Conditions: for viability, T/C: stronger effect = lower value
Method in brief: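 Multi-cell-type spheroids: tumor cells plus HUVEC endothelial cells and mesenchymal stem cells. RAS-pathway inhibitors were combined with targeted agents, each dosed in half-log steps down from clinical Cmax, or from 10 microM when Cmax was unknown.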

[1] = curve of first compound, second compound 0.0316 µM
[2] = curve of first compound, second compound 0.1 µM
[3] = curve of first compound, second compound 0.316 µM
[4] = curve of first compound, second compound 1 µM
[5] = second compound 0.0316 µM, first compound 0.0316 µM
[6] = second compound 0.0316 µM, first compound 0.1 µM
[7] = second compound 0.0316 µM, first compound 0.316 µM
[8] = second compound 0.0316 µM, first compound 1 µM
[9] = second compound 0.1 µM, first compound 0.0316 µM
[10] = second compound 0.1 µM, first compound 0.1 µM
[11] = second compound 0.1 µM, first compound 0.316 µM
[12] = second compound 0.1 µM, first compound 1 µM
[13] = second compound 0.316 µM, first compound 0.0316 µM
[14] = second compound 0.316 µM, first compound 0.1 µM
[15] = second compound 0.316 µM, first compound 0.316 µM
[16] = second compound 0.316 µM, first compound 1 µM
[17] = second compound 1 µM, first compound 0.0316 µM
[18] = second compound 1 µM, first compound 0.1 µM
[19] = second compound 1 µM, first compound 0.316 µM
[20] = second compound 1 µM, first compound 1 µM
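Further: spheroids exposed to compounds for 7 days before viability read.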

`C=CC(=O)N1CCN(c2nc(OCC3CCCN3C)nc3c(F)c(-c4nc(N)cc(C)c4C(F)(F)F)c(Cl)cc23)C(C)C1` (stereo unspecified) + CCn1c(-c2cc(N3CCN(C)CC3)cnc2C(C)OC)c2c3cc(ccc31)-c1csc(n1)CC(NC(=O)C1CC1C)C(=O)N1CCCC(N1)C(=O)OCC(C)(C)C2 gave an IC50 (curve of first compound, second compound 0.000949 µM) greater than 1000 nM, an IC50 (curve of first compound, second compound 0.003 µM) greater than 1000 nM and an IC50 (curve of first compound, second compound 0.00949 µM) of less than 3.16 nM. It also gave an IC50 (curve of first compound, second compound 0.03 µM) of less than 3.16 nM, an IC50 (curve of first compound, second compound 0.0949 µM) of less than 3.16 nM and an IC50 (curve of first compound, second compound 0.3 µM) of less than 3.16 nM. For the same molecule, the viability, T/C (second compound 0.000949 µM, first compound 0.00316 µM) was 100%, the viability, T/C (second compound 0.000949 µM, first compound 0.01 µM) was 95.3% and the viability, T/C (second compound 0.000949 µM, first compound 0.0316 µM) was 97.8%. For the same molecule, the viability, T/C (second compound 0.000949 µM, first compound 0.1 µM) was 82%, the viability, T/C (second compound 0.000949 µM, first compound 0.316 µM) was 96% and the viability, T/C (second compound 0.000949 µM, first compound 1 µM) was 95.7%. It also gave a viability, T/C (second compound 0.003 µM, first compound 0.00316 µM) of 93.8%, a viability, T/C (second compound 0.003 µM, first compound 0.01 µM) of 79% and a viability, T/C (second compound 0.003 µM, first compound 0.0316 µM) of 74.8%. For the same molecule, the viability, T/C (second compound 0.003 µM, first compound 0.1 µM) was 100%, the viability, T/C (second compound 0.003 µM, first compound 0.316 µM) was 90.7% and the viability, T/C (second compound 0.003 µM, first compound 1 µM) was 91.3%. The viability, T/C (second compound 0.00949 µM, first compound 0.00316 µM) was 50.9%, the viability, T/C (second compound 0.00949 µM, first compound 0.01 µM) was 43.2% and the viability, T/C (second compound 0.00949 µM, first compound 0.0316 µM) was 45.5%. For the same molecule, the viability, T/C (second compound 0.00949 µM, first compound 0.1 µM) was 47%, the viability, T/C (second compound 0.00949 µM, first compound 0.316 µM) was 49.9% and the viability, T/C (second compound 0.00949 µM, first compound 1 µM) was 42.9%. It also gave a viability, T/C (second compound 0.03 µM, first compound 0.00316 µM) of 15.2%, a viability, T/C (second compound 0.03 µM, first compound 0.01 µM) of 15.7% and a viability, T/C (second compound 0.03 µM, first compound 0.0316 µM) of 14%. For the same molecule, the viability, T/C (second compound 0.03 µM, first compound 0.1 µM) was 15.6%, the viability, T/C (second compound 0.03 µM, first compound 0.316 µM) was 16.7% and the viability, T/C (second compound 0.03 µM, first compound 1 µM) was 13.9%. It also gave a viability, T/C (second compound 0.0949 µM, first compound 0.00316 µM) of 7.43%, a viability, T/C (second compound 0.0949 µM, first compound 0.01 µM) of 6.42% and a viability, T/C (second compound 0.0949 µM, first compound 0.0316 µM) of 6.99%. The viability, T/C (second compound 0.0949 µM, first compound 0.1 µM) was 6.92%, the viability, T/C (second compound 0.0949 µM, first compound 0.316 µM) was 7.72% and the viability, T/C (second compound 0.0949 µM, first compound 1 µM) was 6.75%. For the same molecule, the viability, T/C (second compound 0.3 µM, first compound 0.00316 µM) was 6.06%, the viability, T/C (second compound 0.3 µM, first compound 0.01 µM) was 5.29% and the viability, T/C (second compound 0.3 µM, first compound 0.0316 µM) was 6.03%. For the same molecule, the viability, T/C (second compound 0.3 µM, first compound 0.1 µM) was 5.77%, the viability, T/C (second compound 0.3 µM, first compound 0.316 µM) was 6.02% and the viability, T/C (second compound 0.3 µM, first compound 1 µM) was 5.32%.
`CCN1CCN(Cc2ccc(Nc3ncc(F)c(-c4cc(F)c5nc(C)n(C(C)C)c5c4)n3)nc2)CC1` + C#Cc1c(F)ccc2cc(O)cc(-c3ncc4c(N5CC6CCC(C5)N6)nc(OCC56CCCN5CC(F)C6)nc4c3F)c12 showed an IC50 [1] of 281 nM, an IC50 [2] of 14.9 nM and an IC50 [3] of less than 3.16 nM. For the same molecule, the IC50 [4] was less than 3.16 nM, the IC50 (curve of first compound, second compound 3.16 µM) was less than 3.16 nM and the IC50 (curve of first compound, second compound 10 µM) was less than 3.16 nM. It also gave a viability, T/C (second compound 0.0316 µM, first compound 0.00316 µM) of 84.9%, a viability, T/C (second compound 0.0316 µM, first compound 0.01 µM) of 69.9% and a viability, T/C [5] of 66.7%. It also gave a viability, T/C [6] of 67.2%, a viability, T/C [7] of 49.2% and a viability, T/C [8] of 22%. The viability, T/C (second compound 0.1 µM, first compound 0.00316 µM) was 65%, the viability, T/C (second compound 0.1 µM, first compound 0.01 µM) was 55.3% and the viability, T/C [9] was 41.7%. The viability, T/C [10] was 31.1%, the viability, T/C [11] was 24% and the viability, T/C [12] was 16.7%. The viability, T/C (second compound 0.316 µM, first compound 0.00316 µM) was 28.9%, the viability, T/C (second compound 0.316 µM, first compound 0.01 µM) was 25.2% and the viability, T/C [13] was 21.7%. The viability, T/C [14] was 16.6%, the viability, T/C [15] was 16.9% and the viability, T/C [16] was 13.1%. The viability, T/C (second compound 1 µM, first compound 0.00316 µM) was 13.1%, the viability, T/C (second compound 1 µM, first compound 0.01 µM) was 16.7% and the viability, T/C [17] was 14.2%. The viability, T/C [18] was 11.6%, the viability, T/C [19] was 15.6% and the viability, T/C [20] was 11.4%. It also gave a viability, T/C (second compound 3.16 µM, first compound 0.00316 µM) of 12.8%, a viability, T/C (second compound 3.16 µM, first compound 0.01 µM) of 10.5% and a viability, T/C (second compound 3.16 µM, first compound 0.0316 µM) of 9.68%. For the same molecule, the viability, T/C (second compound 3.16 µM, first compound 0.1 µM) was 10.6%, the viability, T/C (second compound 3.16 µM, first compound 0.316 µM) was 11.5% and the viability, T/C (second compound 3.16 µM, first compound 1 µM) was 10.6%. For the same molecule, the viability, T/C (second compound 10 µM, first compound 0.00316 µM) was 10.4%, the viability, T/C (second compound 10 µM, first compound 0.01 µM) was 8.81% and the viability, T/C (second compound 10 µM, first compound 0.0316 µM) was 10.7%. The viability, T/C (second compound 10 µM, first compound 0.1 µM) was 9.4%, the viability, T/C (second compound 10 µM, first compound 0.316 µM) was 9.61% and the viability, T/C (second compound 10 µM, first compound 1 µM) was 7.42%.
For `CCC(CC)c1cc(NC2CCC(N)C2)n2nccc2n1` (stereo unspecified), the viability, T/C (compound 0.0316 µM) was 98.2% [middle of 4 runs], the viability, T/C (compound 0.1 µM) was 94.7% [middle of 4 runs] and the viability, T/C (compound 0.316 µM) was 90.1% [middle of 4 runs]. For the same molecule, the viability, T/C (compound 1 µM) was 91.8% [middle of 4 runs], the viability, T/C (compound 3.16 µM) was 5.37% [middle of 4 runs] and the viability, T/C (compound 10 µM) was 0.37% [middle of 4 runs]. The IC50 (curve of compound) was 1.77 µM [middle of 4 runs].
For `C[C@@H](NC(=O)c1ncnc(N)c1Cl)c1ncc(C(=O)Nc2cc(C(F)(F)F)c(Cl)cn2)s1` + C=CC(=O)N1CCN(c2nc(OCC3CCCN3C)nc3c(F)c(-c4nc(N)cc(C)c4C(F)(F)F)c(Cl)cc23)C(C)C1, the IC50 (curve of first compound, second compound 0.00316 µM) was greater than 10000 nM, the IC50 (curve of first compound, second compound 0.01 µM) was greater than 10000 nM and the IC50 [1] was greater than 10000 nM. The IC50 [2] was greater than 10000 nM, the IC50 [3] was greater than 10000 nM and the IC50 [4] was greater than 10000 nM. For the same molecule, the viability, T/C (second compound 0.00316 µM, first compound 0.0316 µM) was 102%, the viability, T/C (second compound 0.00316 µM, first compound 0.1 µM) was 104% and the viability, T/C (second compound 0.00316 µM, first compound 0.316 µM) was 73.2%. For the same molecule, the viability, T/C (second compound 0.00316 µM, first compound 1 µM) was 86.2%, the viability, T/C (second compound 0.00316 µM, first compound 3.16 µM) was 93.9% and the viability, T/C (second compound 0.00316 µM, first compound 10 µM) was 106%. For the same molecule, the viability, T/C (second compound 0.01 µM, first compound 0.0316 µM) was 80.8%, the viability, T/C (second compound 0.01 µM, first compound 0.1 µM) was 83.8% and the viability, T/C (second compound 0.01 µM, first compound 0.316 µM) was 114%. It also gave a viability, T/C (second compound 0.01 µM, first compound 1 µM) of 89.5%, a viability, T/C (second compound 0.01 µM, first compound 3.16 µM) of 126% and a viability, T/C (second compound 0.01 µM, first compound 10 µM) of 71.2%. For the same molecule, the viability, T/C [5] was 104%, the viability, T/C [6] was 113% and the viability, T/C [7] was 84.3%. It also gave a viability, T/C [8] of 97.4%, a viability, T/C (second compound 0.0316 µM, first compound 3.16 µM) of 122% and a viability, T/C (second compound 0.0316 µM, first compound 10 µM) of 72.2%. For the same molecule, the viability, T/C [9] was 86.4%, the viability, T/C [10] was 103% and the viability, T/C [11] was 103%. It also gave a viability, T/C [12] of 95.1%, a viability, T/C (second compound 0.1 µM, first compound 3.16 µM) of 121% and a viability, T/C (second compound 0.1 µM, first compound 10 µM) of 97.3%. It also gave a viability, T/C [13] of 103%, a viability, T/C [14] of 92.3% and a viability, T/C [15] of 95.5%. It also gave a viability, T/C [16] of 87%, a viability, T/C (second compound 0.316 µM, first compound 3.16 µM) of 104% and a viability, T/C (second compound 0.316 µM, first compound 10 µM) of 84.7%. It also gave a viability, T/C [17] of 104%, a viability, T/C [18] of 82% and a viability, T/C [19] of 82.4%. For the same molecule, the viability, T/C [20] was 92.1%, the viability, T/C (second compound 1 µM, first compound 3.16 µM) was 91.2% and the viability, T/C (second compound 1 µM, first compound 10 µM) was 89.8%.
For `C=CC(=O)N1CCN(c2nc(OCC3CCCN3C)nc3c(F)c(-c4nc(N)cc(C)c4C(F)(F)F)c(Cl)cc23)C(C)C1` (stereo unspecified), the viability, T/C (compound 0.0316 µM) was 100% [middle of 12 runs], the IC50 (compound alone, run of 06/10/2024) was greater than 1000 nM and the IC50 (curve of compound) was greater than 1000 nM.
